Among the test systems are A549; COLO 205; HL-60; IGROV-1; M14; MOLT-4; Malme-3M; NCI-H522; OVCAR-4; OVCAR-5; OVCAR-8; RXF 393; SF-295; SK-MEL-5; SNB-75; SR; SW-620; U-251; UACC-62; NCI-H23.
What all share (test): NCI tumour cell line growth inhibition, 48 h

The source of these data is ChEMBL document CHEMBL1201862, “PubChem BioAssay data set” (2004).

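Exposure lasted 48 hours, with cells grown in 96-well plates and compounds tested at five concentrations. GI50 = concentration required for 50% inhibition of growth.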 The source made the active and inactive calls. No stated cut-off is given here; in the data, active = GI50 up to about 1.1 µM and inactive = higher.

On to `O=C(O)/C(O)=C1/C=C(c2ccccc2)c2ccccc21`, for which the GI50 in the assay on A549 is 26.2 µM (inactive); in the assay with COLO 205 it was 18 µM (inactive); in the assay with HL-60, 19.9 µM (inactive); in the assay on IGROV-1, 22.1 µM (inactive); in the assay on M14, 21.1 µM (inactive); in the assay on MOLT-4, 14.8 µM (inactive). Besides, the GI50 in the assay with Malme-3M was 25.5 µM (inactive); in the assay with NCI-H522, 16.9 µM (inactive); in the assay on OVCAR-4, 26.1 µM (inactive); in the assay on OVCAR-5, 23.6 µM (inactive); with OVCAR-8 it was 23.9 µM (inactive); in the assay with RXF 393, 19.4 µM (inactive). The GI50 was 18.8 µM (inactive) with SF-295; 17.7 µM (inactive) in the assay on SK-MEL-5; 22 µM (inactive) in the assay with SNB-75; 18.7 µM (inactive) in the assay on SR; 20 µM (inactive) in the assay with SW-620; 18.7 µM (inactive) in the assay on U-251. Besides, the GI50 with UACC-62 was 16.1 µM (inactive).
Consider `N#Cc1c(N2CCCC2)ncn(-c2ccccc2)c1=S`, for which the GI50 in the assay with A549, with COLO 205, with HL-60, with IGROV-1, in the assay with M14 and with MOLT-4 was > 100 µM (inactive) each time. Further, the GI50 in the assay with Malme-3M, with NCI-H23, in the assay with NCI-H522, with OVCAR-4, in the assay on OVCAR-5 and in the assay with OVCAR-8 was > 100 µM (inactive) each time. The GI50 in the assay on RXF 393 was > 100 µM (inactive); in the assay with SF-295 it was > 100 µM (inactive); with SK-MEL-5, > 100 µM (inactive); in the assay with SNB-75, 94.8 µM (inactive); with SR it was > 100 µM (inactive); in the assay with SW-620, > 100 µM (inactive). For the same compound, the figures for the GI50 with U-251 and with UACC-62 were > 100 µM (inactive) and 19.5 µM (inactive), respectively.
In the case of `O=C(O)C1CC2C=CCC(C2)C1` (stereo not drawn), the GI50 in the assay on A549, with COLO 205, in the assay on HL-60, in the assay on IGROV-1, with M14 and with MOLT-4 was > 100 µM (inactive) throughout. Moreover, the GI50 in the assay on Malme-3M, in the assay on NCI-H23, with NCI-H522, in the assay on OVCAR-4, in the assay with OVCAR-5 and in the assay on OVCAR-8 was > 100 µM (inactive) each time. Moreover, the GI50 in the assay with RXF 393, in the assay with SF-295, in the assay on SK-MEL-5, in the assay with SNB-75, in the assay on SR and in the assay with SW-620 was > 100 µM (inactive) throughout. Moreover, the GI50 in the assay on U-251 and in the assay on UACC-62 was > 100 µM (inactive) each time.
Take `O=C1CCCC1C(O)(C(F)(F)Cl)C(F)(F)Cl` (stereo not drawn): the GI50 in the assay with A549, in the assay on COLO 205, in the assay with HL-60, with IGROV-1, with M14 and in the assay on MOLT-4 was > 10 µM (inactive) throughout. Further, the GI50 in the assay on Malme-3M, with NCI-H23, in the assay on NCI-H522, with OVCAR-4, in the assay on OVCAR-5 and in the assay with OVCAR-8 was > 10 µM (inactive) each time. For the same compound, the GI50 with RXF 393, in the assay on SF-295, in the assay on SK-MEL-5, with SNB-75, in the assay with SR and in the assay with SW-620 was > 10 µM (inactive) each time. Further, the GI50 with U-251 and in the assay on UACC-62 was > 10 µM (inactive) in each case.
`CC(=O)c1ccc(NC(=O)/C(CC(=O)/C=C/c2ccccc2)=N/NC(N)=S)cc1`: the GI50 was > 100 µM (inactive) in the assay on A549; 80.7 µM (inactive) in the assay with HL-60; 53.1 µM (inactive) in the assay with IGROV-1; > 100 µM (inactive) in the assay on M14; 46.5 µM (inactive) with MOLT-4; > 100 µM (inactive) with Malme-3M. For the same compound, the GI50 in the assay with NCI-H23 was 60 µM (inactive); in the assay with NCI-H522, 33.3 µM (inactive); in the assay on OVCAR-4, 49.5 µM (inactive); in the assay on OVCAR-5 it was > 100 µM (inactive); in the assay on OVCAR-8, 87.7 µM (inactive); in the assay on RXF 393 it was > 100 µM (inactive). Besides, the GI50 in the assay on SF-295 was > 100 µM (inactive); in the assay with SK-MEL-5, 43.7 µM (inactive); in the assay with SNB-75 it was > 100 µM (inactive); in the assay on SR, > 100 µM (inactive); with SW-620, > 100 µM (inactive); in the assay with U-251, > 100 µM (inactive). Besides, the GI50 in the assay on UACC-62 is > 100 µM (inactive).
Consider `COc1oc(C2C/C(=C/C(C)=C/C(C)=C/C(C)=C/c3ccc([N+](=O)[O-])cc3)CO2)c(C)c(=O)c1C` (stereo not drawn), for which the GI50 with A549 was 1.74 µM (inactive); in the assay with COLO 205, 3.55 µM (inactive); with HL-60 it was 1.68 µM (inactive); in the assay on IGROV-1 it was 13.2 µM (inactive); with M14, 6.03 µM (inactive); in the assay with MOLT-4, 1.67 µM (inactive). Besides, the GI50 with Malme-3M was 3.61 µM (inactive); with NCI-H23, 1.79 µM (inactive); in the assay on NCI-H522, 0.344 µM (active); with OVCAR-4 it was 3.5 µM (inactive); in the assay with OVCAR-5, 47.4 µM (inactive); in the assay with OVCAR-8, 1.52 µM (inactive). The GI50 with RXF 393 was 17.9 µM (inactive); in the assay on SF-295, 2.47 µM (inactive); with SK-MEL-5, < 0.01 µM (active); in the assay with SNB-75, 15.4 µM (inactive); with SR, < 0.01 µM (active); in the assay on SW-620 it was 9.1 µM (inactive). For the same compound, the figures for the GI50 in the assay with U-251 and with UACC-62 were 6.27 µM (inactive) and 5 µM (inactive), respectively.
For `O=C(C1=C(C(=O)c2ccccc2)SC2(S1)C(C(=O)c1ccccc1)=C(C(=O)c1ccccc1)Sc1c2ssc1=O)c1ccccc1`, the GI50 in the assay on A549 was 30.5 µM (inactive); in the assay with COLO 205, > 100 µM (inactive); with HL-60 it was 11.2 µM (inactive); in the assay on IGROV-1 it was > 100 µM (inactive); in the assay with M14, 37.3 µM (inactive); with MOLT-4 it was 1.11 µM (active). Besides, the GI50 in the assay on Malme-3M was > 100 µM (inactive); with NCI-H23 it was > 100 µM (inactive); in the assay on NCI-H522, 26.7 µM (inactive); in the assay on OVCAR-4, 36.7 µM (inactive); with OVCAR-5 it was 26.8 µM (inactive); in the assay on OVCAR-8 it was 44.5 µM (inactive). Also, the GI50 was 34.8 µM (inactive) with RXF 393; 33.5 µM (inactive) with SF-295; 43.6 µM (inactive) with SK-MEL-5; 36.7 µM (inactive) with SNB-75; 9.51 µM (inactive) in the assay on SR; 22 µM (inactive) in the assay with SW-620. Further, the values for the GI50 in the assay with U-251 and in the assay with UACC-62 were 32.6 µM (inactive) and 22.4 µM (inactive), respectively.
As to `COc1ccc(C[C@H]2COC(=O)[C@@H]2Cc2cccc(Br)c2)cc1OC`, the GI50 with A549 was 32.9 µM (inactive); in the assay on COLO 205 it was 14 µM (inactive); in the assay on HL-60, 12.2 µM (inactive); with IGROV-1, 31.6 µM (inactive); with M14, 14.4 µM (inactive); in the assay on MOLT-4, 8.75 µM (inactive). In addition, the GI50 in the assay with Malme-3M is 21.2 µM (inactive); with NCI-H23, 21.2 µM (inactive); in the assay with NCI-H522 it was 19.5 µM (inactive); with OVCAR-4 it was 10.4 µM (inactive); in the assay with OVCAR-5 it was 33.1 µM (inactive); in the assay on OVCAR-8, 24.4 µM (inactive). Moreover, the GI50 in the assay with RXF 393 is 23.6 µM (inactive); with SF-295, 32.7 µM (inactive); in the assay on SK-MEL-5, 15.7 µM (inactive); in the assay with SNB-75, 8.99 µM (inactive); in the assay on SR, 3.05 µM (inactive); with SW-620, 22.5 µM (inactive). Besides, the GI50 was 26.4 µM (inactive) in the assay with U-251 and 25.6 µM (inactive) in the assay on UACC-62.
With `Cc1cc(C)c2c(O)cc(-c3cccc4ccccc34)nc2n1`, the GI50 in the assay on A549 was 0.867 µM (active); in the assay on COLO 205 it was 0.41 µM (active); with HL-60 it was 0.26 µM (active); in the assay on IGROV-1, 1.49 µM (inactive); in the assay with M14, 0.745 µM (active); in the assay on MOLT-4, 0.863 µM (active). In addition, the GI50 with Malme-3M is 0.28 µM (active); in the assay on NCI-H23, 2.13 µM (inactive); in the assay with NCI-H522 it was 0.373 µM (active); with OVCAR-4, 4.25 µM (inactive); in the assay on OVCAR-5, 2.29 µM (inactive); in the assay on OVCAR-8 it was 1.14 µM (inactive). The GI50 in the assay with RXF 393 is 0.746 µM (active); in the assay on SF-295, 0.615 µM (active); in the assay with SK-MEL-5, 0.381 µM (active); with SNB-75 it was 0.317 µM (active); in the assay on SR, 0.342 µM (active); in the assay on SW-620, 0.448 µM (active). In addition, the GI50 with U-251 was 0.426 µM (active); in the assay with UACC-62, 0.349 µM (active).
`NC(CP(=O)(O)O)C(=O)O` (stereo not drawn): the GI50 with A549, in the assay with COLO 205, with HL-60, with IGROV-1, with M14 and in the assay with MOLT-4 was > 100 µM (inactive) throughout. For the same compound, the GI50 in the assay on Malme-3M, in the assay on NCI-H23, in the assay on NCI-H522, in the assay on OVCAR-4, in the assay with OVCAR-5 and with OVCAR-8 was > 100 µM (inactive) throughout. Further, the GI50 in the assay on RXF 393, with SF-295, in the assay with SK-MEL-5, in the assay with SNB-75, in the assay with SR and with SW-620 was > 100 µM (inactive) in each case. For the same compound, the GI50 in the assay on U-251 and in the assay on UACC-62 was > 100 µM (inactive) throughout.
